Source: patent US5747235A, “Silver halide light sensitive emulsion layer having enhanced photographic sensitivity” (Eastman Kodak Company, priority 1996, dated 1998)
Structures can show the parent of a compound that is named as a salt.

Legend:
[1] = Example 13: photographic speed and fog, 365 nm exposure, cubic emulsion C-3; conditions: for Fog / S365: 0.02 x10^-3 mol/mol Ag
Description: (§1) For photographic evaluation, each of the coating strips was exposed for 0.1 sec to a 365 nm emission line of a Hg lamp filtered through a Kodak Wratten filter number 18A and a step wedge ranging in density from 0 to 4 density units in 0.2 density steps. The exposed film strips were developed for 6 min in Kodak Rapid X-ray Developer (KRX). S365, relative sensitivity at 365 nm, was evaluated at a density of 0.2 units above fog.
A chloride containing cubic emulsion with uniform halide distribution was precipitated using deionized gelatin. Emulsion C-3 was an AgClI emulsion with a 1.5% I content and a cubic edge length of 0.36 μm. The emulsion was chemically sensitized by adding 15 mg of Au2 S/mole Ag using a gelatin dispersion. The chemical sensitizer was added to the emulsion at 40° C., the temperature was then raised to 60° C. and the emulsion held for 20 min before cooling back to 40° C. These experimental coating variations contained the hydroxybenzene, 2,4-disulfocatechcol (HB3) at a concentration of 13 mmole/mole Ag, added to the melt before the addition of any further compounds. Some of the variations were then dyed with the sensitizing dye D-I, added from methanol solution. The fragmentable electron donor compound S-9 was then added to the emulsion melts at 40° C. and coatings were prepared and tested as described in Example 1 except that the additional gelatin used to prepare the coatings described in Table XIII was deionized gelatin.

[2] = Example 6: photographic speed and fog, 365 nm exposure, emulsion T-2; conditions: for effect on dye desensitization: red dyed emulsion (D-II), 365 nm
Description: as §1
An AgBrI tabular silver halide emulsion (Emulsion T-2) was prepared containing 4.05% total I distributed such that the central portion of the emulsion grains contained 1.5% I and the perimeter area contained substantially higher I, as described by Chang et. al., U.S. Pat. No. 5,314,793. […] This emulsion was precipitated using deionized gelatin. The emulsion was sulfur sensitized by adding 8.5×10^-6 mole 1,3-dicarboxymethyl-1,3-dimethyl-2-thiourea /mole Ag at 40° C.; the temperature was then raised to 60° C. at a rate of 5° C./3 min and the emulsions held for 20 min before cooling to 40° C. The chemically sensitized emulsion was then used to prepare coatings containing the fragmentable two-electron donor compounds. All of the experimental coating variations in Table III contained the hydroxybenzene 2,4-disulfocatechol (HB3) at a concentration of 13 mmole/ mole Ag, added to the melt before the addition of any further addenda. Where present, the blue sensitizing dye D-I or the red sensitizing dye D-II were added from methanol solution to the emulsion at 40° C. after the chemical sensitization and disulfocatechol addition. The fragmentable two-electron donor compounds were added to the emulsion at 40° C. and the coatings were prepared and tested as described in Example 1, except that the additional gelatin used to prepare the coatings described in Table III was deionized gelatin.
The chemically sensitized AgErI tabular emulsion T-2 as described in Example 3 was used to prepare the experimental coating variations listed in Table VI, comparing fragmentable electron donating compounds PMT-1 and PMT-2 that contain a phenylmercaptotetrazole as the silver halide adsorbing group. For some of the experimental variations listed in Table VI the red sensitizing dye D-II was added from methanol solution to the emulsion at 40° C. after the chemical sensitization. The fragmentable electron donating compounds were then added to the emulsion and coatings prepared and tested for sensitivity at 365 nm and for spectral sensitivity as described in Example 3.

[3] = Example 12: photographic sensitivity and fog, color format, blue sensitized emulsion T-2; conditions: for Photographic Sensitivity SWR2B: control=100
Description: The AgBrI tabular silver halide emulsion T-2 from Example 3 was optimally chemically and spectrally sensitized by adding NaSCN, 1.07 mmole of the blue sensitizing dye D-I per mole of silver, Na3 Au(S2 O3)2 ·2H2 O, Na2 S2 O3 ·5H2 O, and a benzothiazolium finish modifier and then subjecting the emulsion to a heat cycle to 65° C. The hydroxybenzene, 2,4-disulfocatechcol (HB3) at a concentration of 13×10^-3 mole/mole Ag was added to the emulsion melt before the start of the chemical sensitization procedure. This chemically sensitized emulsion was then used to prepare the experimental coating variations given in Table X. For all the variations in Table X, the antifoggant and stabilizer tetraazaindene (TAI) was added to the emulsion melt in an amount of 1.75 g/mole Ag before any further addenda. The fragmentable two-electron donors S-3, S-9, S-6, or S-8 were then added to the emulsion melt.
The melts were prepared for coating by adding additional water, deionized gelatin and coating surfactants. Coatings were prepared by combining the emulsion melts with a melt containing deionized gelatin and an aqueous dispersion of the cyan-forming color coupler CC-1 and coating the resulting mixture on acetate support. The final coatings contained Ag at 0.81 g/m^2, coupler at 1.61 g/m^2, and gelatin at 3.23 g/m^2. The coatings were overcoated with a protective layer containing gelatin at 1.08 g/m^2, coating surfactants, and a bisvinylsulfonylmethyl ether as a gelatin hardening agent. The structure of the color coupler CC-1 is given below: [drawing 120]
For photographic evaluation, each of the coating strips was exposed for 0.01 sec to a 3000K color temperature tungsten lamp filtered to give an effective color temperature of 5500K and further filtered through a Kodak Wratten filter number 2B, and a step wedge ranging in density from 0 to 4 density units in 0.20 density steps. This exposure gives light absorbed mainly by the blue sensitizing dye. The exposed film strips were developed for 31/4 minutes in Kodak C-41 color developer. SWR2B, relative sensitivity for this filtered exposure, was evaluated at a cyan density of 0.15 units above fog.
The AgBrI tabular emulsion T-2 as described in Example 3 was sensitized as described in Example 10 except that the hydroxybenzene HB3 was added at the completion of the chemical sensitization procedure. For all the variations in Table XII, the antifoggant and stabilizer tetraazaindene (TAI) was added to the emulsion melt in an amount of 1.75 g/mole Ag before any further addenda. The fragmentable electron donors PMT-1 or PMT-2 were then added to the emulsion melt. These compounds contain a phenylmercaptotetrazole as the silver halide adsorbing group. The melts were then coated and tested as described in Example 10.

Question: Which Fog ([1]; dye I 0.61 x10^-3) does the source give for `CCSCCN(c1ccccc1)C(C)C(=O)O` (stereo not shown) [Compound S-9, N-(Phenyl)-N-(2-thioethyl-ethyl)alanine sodium salt] here?
Answer: Its Fog is 0.14.

Question: What about the S365 ([1]; dye I 0.61 x10^-3, dyed control 74) of the same compound?
Answer: The S365 was 129.

Question: What about the Fog ([1]; no dye) of the same compound?
Answer: The Fog was 0.15.

Question: And the S365 ([1]; no dye, control=100)?
Answer: Its S365 is 118.

Question: And the speed increase ([1]; undyed AgClI cubic emulsion)?
Answer: The speed increase was 1.2 X.

Question: What does the source list for `Cc1ccc(N(CCC(=O)Nc2cccc(-n3nnnc3S)c2)C(C)C(=O)O)cc1` (stereo not shown) [PMT-1]?
Answer: Fog ([2]; 0.0006 x10^-3 mole/mole Ag, dye II 0.86 x10^-3): 0.14; S365 ([2]; 0.0006 x10^-3 mole/mole Ag, dye II 0.86 x10^-3, dyed control 73): 97; Fog ([2]; 0.0017 x10^-3 mole/mole Ag, dye II 0.86 x10^-3): 0.27; S365 ([2]; 0.0017 x10^-3 mole/mole Ag, dye II 0.86 x10^-3, dyed control 73): 115; Fog ([2]; 0.0055 x10^-3 mole/mole Ag, dye II 0.86 x10^-3): 0.53; S365 ([2]; 0.0055 x10^-3 mole/mole Ag, dye II 0.86 x10^-3, dyed control 73): 102; Fog ([2]; 0.006 x10^-3 mole/mole Ag, no dye): 0.08; S365 ([2]; 0.006 x10^-3 mole/mole Ag, no dye, control=100): 195; Fog ([2]; 0.017 x10^-3 mole/mole Ag, no dye): 0.13; S365 ([2]; 0.017 x10^-3 mole/mole Ag, no dye, control=100): 191; effect on dye desensitization [2]: effective in ameliorating dye desensitization; Fog ([3]; 0.5 x10^-6 mol/mol Ag): 0.09; Photographic Sensitivity SWR2B ([3]; 0.5 x10^-6 mol/mol Ag): 138; Fog ([3]; 1.5 x10^-6 mol/mol Ag): 0.15; Photographic Sensitivity SWR2B ([3]; 1.5 x10^-6 mol/mol Ag): 166

Question: What does the source list for `CC(C(=O)O)N(CCC(=O)Nc1cccc(-n2nnnc2S)c1)c1ccccc1` (stereo not shown) [PMT-2]?
Answer: Fog ([2]; 0.0005 x10^-3 mole/mole Ag, dye II 0.86 x10^-3): 0.13; S365 ([2]; 0.0005 x10^-3 mole/mole Ag, dye II 0.86 x10^-3, dyed control 73): 102; Fog ([2]; 0.0016 x10^-3 mole/mole Ag, dye II 0.86 x10^-3): 0.23; S365 ([2]; 0.0016 x10^-3 mole/mole Ag, dye II 0.86 x10^-3, dyed control 73): 118; Fog ([2]; 0.005 x10^-3 mole/mole Ag, dye II 0.86 x10^-3): 0.40; S365 ([2]; 0.005 x10^-3 mole/mole Ag, dye II 0.86 x10^-3, dyed control 73): 118; Fog ([2]; 0.005 x10^-3 mole/mole Ag, no dye): 0.06; S365 ([2]; 0.005 x10^-3 mole/mole Ag, no dye, control=100): 191; Fog ([2]; 0.016 x10^-3 mole/mole Ag, no dye): 0.08; S365 ([2]; 0.016 x10^-3 mole/mole Ag, no dye, control=100): 186; effect on dye desensitization [2]: effective in ameliorating dye desensitization; Fog ([3]; 0.5 x10^-6 mol/mol Ag): 0.09; Photographic Sensitivity SWR2B ([3]; 0.5 x10^-6 mol/mol Ag): 141; Fog ([3]; 1.4 x10^-6 mol/mol Ag): 0.10; Photographic Sensitivity SWR2B ([3]; 1.4 x10^-6 mol/mol Ag): 166; Fog ([3]; 4.5 x10^-6 mol/mol Ag): 0.16; Photographic Sensitivity SWR2B ([3]; 4.5 x10^-6 mol/mol Ag): 191
